From patent US6281222A (Inotek Corporation, priority 2000, dated 2001)
Entries after “also recorded” stand apart in the source; their conditions may differ.

Legend:
[1] = Survival after severe acetaminophen intoxication, fasted 36 hours (FIG. 3); assay type: in vivo, mice; settings: mouse, in vivo, ip; 350 mg/kg i.p., fasted 36 hours, by 8 hours
[2] = test system: acetaminophen-intoxicated mice; experiment: as above; assay type: in vivo
[3] = test system: acetaminophen-induced increases in ALT plasma levels; experiment: Serum/plasma ALT levels with different frequencies and starting points of AHPP or NAC treatment (FIG. 2); assay type: in vivo, rats
Text: The effectiveness of AHPP when given at various frequencies and starting points of administration was also examined. […] Serum ALT levels in rats were then examined
The bars from the left to the right represent the following groups: […]

[4] = test system: acetaminophen-induced liver injury; experiment: Plasma ALT and AST release after acetaminophen, with simultaneous AHPP treatment (FIGS. 1A and 1B); assay type: in vivo, rats; settings: AHPP 50 mg/kg q8h per gavage, simultaneous with acetaminophen 350 mg/kg i.p.
Description: The effect of AHPP on the release of ALT and AST in plasma was examined. […] The effect of AHPP is measured by the release of AST and ALT in rats.

[5] = test system: liver tissues (centrilobular injury); experiment: Histological injury score in the liver; assay type: in vivo, rats
Description: Scoring was performed by two independent investigators who were blinded to the treatment regimen. The following grading system was used: 0--normal liver, no signs of injury; 1--rare areas of centrilobular injury; 2--moderate injury involving many centrilobular areas; 3--extensive centrilobular necrosis; 4--massive hepatic injury involving all centrilobular areas and beyond.

[6] = test system: acetaminophen-induced liver injury; experiment: Minimally effective AHPP dose: reduction in serum ALT; assay type: in vivo
[7] = test system: acetaminophen-induced mortality; experiment: Dose response survival study; assay type: in vivo; settings: for protective effect / survival: 24 hours; for survival rate: vehicle 25%; for survival: vehicle 0%
Description: The minimally effective dose of AHPP was examined. Criteria for an effective dose included ability to suppress liver injury and protect against acetaminophen-induced mortality. […] Although the effect was only partial, ALT levels were reduced by 56±16% (n=8; p<0.05).
In order to validate the significance of the above mentioned reductions in serum transaminases, a dose response survival study was also performed. […] Survival rate was 25% in the vehicle treated group, and improved to 87% with 3 mg/kg and 10 mg/kg q8h doses. […] For the survival studies, n=8-10 animals per group. […] The effective dose range lays between 10 and 50 mg/kg of AHPP q8h per enteral gavage.

[8] = Preliminary toxicity study, enteral administration; assay type: in vivo, mice; settings: enteral gavage up to 1000 mg/kg (300, 500, 1000 mg/kg), 24 h, n=8 per group
Description: Preliminary toxicity studies were performed with AHPP to estimate the expected therapeutic ratio of the compound.

[9] = 50 mg/kg enterally, 4 h post-acetaminophen

SMILES: CC(=O)Nc1ccc(O)cc1 [acetaminophen, reference compound]
- mortality at 8 h [1]: 75%
- onset of lethality ([2]; 350 mg/kg i.p., fasted 36 hours): 2 h

SMILES: CC(=O)N[C@@H](CS)C(=O)O [N-acetyl-cysteine, reference compound]
- protective effect, co-treatment (0 h) ([3]; 50 mg/kg enterally at time of acetaminophen injection): significantly protective
- degree of liver injury, 4 h post-treatment [3, 9]: exacerbated the degree of liver injury
- protective effect, 4 h post-treatment [3, 9]: lost its protective effect

SMILES: Nc1nc(O)nc2[nH]ncc12 [AHPP, 4-Amino-6-hydroxypyrazolo[3,4-d]pyrimidine]
- degree of liver injury, as assessed by release of ALT and AST [4]: significantly reduced the degree of liver injury
- median histological injury score ([5]; AHPP+Acetaminophen, scale 0 (normal liver) to 4 (massive hepatic injury), p<0.05): 2.1
- histological injury in the liver ([5]; response to AHPP treatment, in words): significant attenuation of the histological injury
- protective effect, 8 h+16 h ([3]; 50 mg/kg enteral gavage at 8 h and 16 h post-acetaminophen): significant protective effects
- effect on ALT levels, 4 h post-treatment ([3]; 50 mg/kg enterally, 4 h post-acetaminophen, no supplemental doses): reduced
- ALT levels vs acetaminophen alone ([3]; concurrent with, or subsequent to acetaminophen): lowered ALT levels
- enteral uptake ([3]; inferred from efficacy via gavage, 24 h protocol): sufficient enteral uptake
- effect of timing and frequency of administration ([3]; start close in time to acetaminophen, followed by additional treatments at 8 h interval): most effective
- hepatoprotection, conclusion ([3]; summary of data): advantageously compares to NAC as a hepatoprotective agent; also recorded: effective via an enteral delivery route; also recorded: effective both as a co-treatment and in delayed post-treatment regimens
- protection / survival ([2]; AHPP 30 mg/kg q8h gavage, simultaneous with acetaminophen 350 mg/kg i.p.): markedly protective; also recorded: dramatically prolonged survival
- protective effect ([6]; 3 mg/kg q8h per enteral gavage): significant protection
- reduction in ALT levels ([6]; 3 mg/kg q8h per enteral gavage, n=8, p<0.05): 56±16%
- efficacy relative to 50 mg/kg dose ([6]; 10 mg/kg q8h per enteral gavage): equivalent in efficacy to the 50 mg/kg dose
- reduction in serum ALT concentration ([6]; 10 mg/kg q8h per enteral gavage, n=7, p<0.01): 89%
- protective effect ([7]; 3 mg/kg q8h): lost its protective effect
- survival rate ([7]; 3 mg/kg q8h enteral gavage, 8 hours): 87%
- survival ([7]; 3 mg/kg q8h enteral gavage): 0%
- protective effect ([7]; 10 mg/kg q8h): maintained its protective effect
- survival rate ([7]; 10 mg/kg q8h enteral gavage, 8 hours): 87%
- survival ([7]; 10 mg/kg q8h enteral gavage): 63%
- protection against mortality ([7]; 3 and 10 mg/kg q8h enteral gavage, 8 hours): significantly protected against mortality
- mortality or behavioral or histological alterations [8]: did not result in mortality or behavioral or histological alterations
